Data on one compound can be found in patent US11760733B2, “Small molecule regulators of mitochondrial fusion and methods of use thereof” (Washington University, priority 2017, dated 2023).

The nature of data set [1]: Parallel artificial membrane permeability assay (PAMPA). The format is in vitro ADME. Background: In PAMPA a lipid-coated filter parts donor from acceptor wells.
Data set [2] can be described thus: In vivo pharmacokinetics in mice. Also noted: species or system mouse. The conditions noted are these: 2 hours after IM administration, 1 mg/kg. How it is done: (A) Three mice each were administered 1 mg/kg agonist IV, IP, or IM. Graphs are mean plasma concentration for each administration route. (B) Results for individual mice were administered 1 mg/kg indicated agonist IM.

For data set [3], the target named is P-gp/MDR1 (Homo sapiens, UniProt P08183). The data set is described as follows: P-gp/MDR1 transport. Type of data set: in vitro ADME.
Chain of P-gp/MDR1 (P08183 whole entry): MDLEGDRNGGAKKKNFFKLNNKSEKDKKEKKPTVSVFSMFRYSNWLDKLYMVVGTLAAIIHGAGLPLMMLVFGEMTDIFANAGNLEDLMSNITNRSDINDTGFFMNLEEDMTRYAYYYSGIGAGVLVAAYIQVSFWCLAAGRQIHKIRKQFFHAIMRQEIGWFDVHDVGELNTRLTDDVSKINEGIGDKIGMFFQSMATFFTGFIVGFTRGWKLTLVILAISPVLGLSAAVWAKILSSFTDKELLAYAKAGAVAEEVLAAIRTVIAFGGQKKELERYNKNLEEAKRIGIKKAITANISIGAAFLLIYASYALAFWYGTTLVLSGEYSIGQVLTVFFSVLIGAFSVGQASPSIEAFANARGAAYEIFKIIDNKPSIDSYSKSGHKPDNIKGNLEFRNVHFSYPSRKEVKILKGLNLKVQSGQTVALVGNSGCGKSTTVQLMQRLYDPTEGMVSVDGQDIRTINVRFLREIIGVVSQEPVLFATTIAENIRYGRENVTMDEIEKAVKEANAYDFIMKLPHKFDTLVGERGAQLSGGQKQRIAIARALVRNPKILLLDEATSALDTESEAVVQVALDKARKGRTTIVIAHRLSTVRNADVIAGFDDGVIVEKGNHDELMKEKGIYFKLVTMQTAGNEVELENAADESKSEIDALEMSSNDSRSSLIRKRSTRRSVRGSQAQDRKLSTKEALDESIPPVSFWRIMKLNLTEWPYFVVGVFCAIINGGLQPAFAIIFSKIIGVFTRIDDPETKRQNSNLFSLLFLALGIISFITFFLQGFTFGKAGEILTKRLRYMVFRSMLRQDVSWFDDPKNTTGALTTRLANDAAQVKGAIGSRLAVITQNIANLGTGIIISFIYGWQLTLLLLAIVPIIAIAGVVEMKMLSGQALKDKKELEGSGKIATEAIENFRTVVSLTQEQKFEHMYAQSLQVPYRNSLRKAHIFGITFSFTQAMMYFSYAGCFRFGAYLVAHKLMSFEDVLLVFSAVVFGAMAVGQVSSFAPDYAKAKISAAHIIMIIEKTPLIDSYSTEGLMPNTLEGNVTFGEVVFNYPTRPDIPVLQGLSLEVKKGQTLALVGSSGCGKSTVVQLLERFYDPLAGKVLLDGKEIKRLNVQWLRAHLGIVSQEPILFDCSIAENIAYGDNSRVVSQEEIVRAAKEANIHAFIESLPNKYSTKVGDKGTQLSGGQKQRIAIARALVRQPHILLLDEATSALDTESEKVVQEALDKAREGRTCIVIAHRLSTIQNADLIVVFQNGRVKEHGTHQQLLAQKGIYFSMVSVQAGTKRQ

On to `CC1CCCCC1NC(=O)NCCCc1nnc(C2CC2)n1-c1ccccc1` (stereo not drawn) [Regeneurin-C, 1-(3-(5-cyclopropyl-4-phenyl-4H-1,2,4-triazol-3-yl)propyl)-3-(2-methylcyclohexyl)urea], for which the “passive diffusion across lipid-infused artificial membrane (PAMPA), in words” value in data set [1] is recorded as “excellent passive diffusion”. Moreover, in data set [2], the “total plasma drug concentration” value was “undetectable”. Besides, the “P-gp/MDR1 transport, in words” value in data set [3] was “actively transported by P-gp/MDR1”.
